Laboratory results published in patent US20070207996A1, “Novel Compositions And Methods Of Treatment” (priority 2004, published 2007).

How the values were obtained:
in vivo = settings: mouse
[1] = test system: P388 lymphocytic leukemia; experiment: Drug combination efficacy study in advanced systemic P388 lymphocytic leukemia model; type: in vivo, mice
Procedure: (§1) Female B6D2F1 mice (Charles River Laboratories, Raleigh, N.C.) were used in these studies. All procedures were performed in accordance with protocols approved by the SB Institutional Animal Care and Use Committee, and met or exceeded the standards of the American Association for the Accreditation of Laboratory Animal Care (AAALAC), the United States Department of Health and Human Services and all local and federal animal welfare laws.
(§2) MAP and PCR tested P388 lymphocytic leukemia cell lines obtained originally from the National Cancer Institute Repository at Frederick Cancer Research Center, Frederick, Md., were used in these studies. P388 lymphocytic leukemia were maintained by serial i.p. transplantation in syngeneic B6D2F1 mice. […] Protocols for screening chemical agents and natural products against animal tumors and other biological systems. Cancer Chemother. […] All tumor tissues are presently in cryopreservation within the department of Molecular and Cellular Oncology.
(§3) For efficacy studies, P388 lymphocytic leukemia were harvested aseptically from the peritoneal cavity of donor mice, pooled, diluted with Earle's Balanced Salt Solution and trypan blue, and counted using a hemocytometer. An inoculum of 0.2 ml (5×10^6/ml) was implanted i.v. in the lateral tail vein of female BDF1 mice using a 25 gauge needle. The tumor inoculum was tested for bacterial contamination as determined by a 24-hr incubation in thioglycollate broth.
(§4) Each experiment included two groups of untreated tumor-bearing controls, and a titration of tumor cells in untreated animals (ranging from 10^1 to 10^5 so that drug-induced cell kill (NCK) could be calculated. Drug treatment was initiated 48 hrs after tumor implantation. Specific endpoints calculated from this model are % increase in median lifespan (% ILS) relative to the untreated control animals and log net change in tumor cell burden following therapy (NCK).

[2] = as above; type: in vivo, mice; settings: female, B6D2F1, mouse, in vivo
Procedure: as §1, §2, §3, §4

[3] = First Time in Human Study of Compound A, monotherapy once every 21 days; type: in vivo; settings: once every 21 day schedule, prior study in humans
[4] = cisplatin alone 4 mg/kg, ip q4dx3, first cisplatin study
[5] = cisplatin alone 4 mg/kg, repeat cisplatin study
[6] = 5FU 26 mg/kg alone, ip Days 2, 6, 10
[7] = 5FU 43 mg/kg alone, ip Days 2, 6, 10
[8] = 5FU 72 mg/kg alone, ip Days 2, 6, 10
[9] = 5FU 120 mg/kg alone, ip Days 2, 6, 10
[10] = ip, single agent, ip Days 2, 6, 10, gemcitabine study, read-out: MTD
[11] = ip, single agent, ip q4dx3 Days 2, 6, 10, irinotecan study, read-out: MTD
[12] = Compound A 2.6 mg/kg alone, ip Days 2, 6, 10, 5FU study
[13] = Compound A 4.3 mg/kg alone, ip Days 2, 6, 10, 5FU study
[14] = Compound A alone 4.3 mg/kg (MTD), ip q4dx3, first cisplatin study
[15] = Compound A alone 4.3 mg/kg (MTD), doxorubicin study
[16] = Compound A alone 6 mg/kg (MTD), irinotecan study
[17] = Compound A alone 7.2 mg/kg (MTD), repeat cisplatin study
[18] = Compound A alone 10 mg/kg, gemcitabine study
[19] = doxorubicin alone 12 mg/kg, ip Days 2, 6, 10
[20] = gemcitabine alone 200 mg/kg, ip Days 2, 6, 10
[21] = irinotecan alone 54 mg/kg, ip q4dx3
[22] = irinotecan alone 150 mg/kg (MTD), ip q4dx3

SMILES: CCCCCOC(=O)Nc1nc(=O)n([C@@H]2O[C@H](C)[C@@H](O)[C@H]2O)cc1F [CAP, Capecitabine, reference compound]
- MX-1 tumor growth (MX-1 breast carcinoma; CAP alone 500 and 250 mg/kg, daily for two 5 day cycles with 2 day rest): slight delay in MX-1 tumor growth
- MTD (in vivo): 500 mg/kg

SMILES: N.N.[Cl][Pt][Cl] [Cisplatin, cisplatin, reference compound]
- % ILS (increase in life span) [1, 4]: 200%
- log cell kill (net cell kill) [1, 4]: 3.7 log
- % ILS (increase in life span) [1, 5]: 133%
- log cell kill (net cell kill) [1, 5]: 1.7 log

SMILES: O=c1[nH]cc(F)c(=O)[nH]1 [Compound 5FU, 5-fluorouracil, reference compound]
- % ILS [1, 6]: 33%
- Net Cell Kill [1, 6]: [0] log
- % ILS [1, 7]: 55%
- Net Cell Kill [1, 7]: [0] log
- Net Cell Kill ([1]; 5FU 43 mg/kg alone, ip Days 2, 6, 10, listed as 5 FU): no log cell kill
- % ILS [1, 8]: 44%
- Net Cell Kill [1, 8]: [0] log
- % ILS [1, 9]: 22%
- Net Cell Kill [1, 9]: [0] log
- toxicity at dose level ([1]; 5FU 200 mg/kg alone, ip Days 2, 6, 10): Toxic

SMILES: CS(=O)(=O)O.Cc1ccc(C(=O)N(CCCN)[C@@H](c2nc3cc(Cl)ccc3c(=O)n2Cc2ccccc2)C(C)C)cc1 [Compound A, N-(3-aminopropyl)-N-[(1R)-1-[7-chloro-3,4-dihydro-4-oxo-3-(phenylmethyl)-2-quinazolinyl]-2-methylpropyl]-4-methylbenzamide, mesylate salt]
- MTD ([2]; intraperitoneal, increased from 7.2 alone, repeat cisplatin study, read-out: MTD of Compound A in combination with cisplatin): 12 mg/kg
- MTD ([2]; ip, single agent, ip Days 2, 6, 10, doxorubicin study, read-out: MTD): 4.3 mg/kg
- MTD [2, 10]: ≥ 10 mg/kg
- MTD ([2]; ip, single agent, ip q4dx3, 5FU study, read-out: MTD): 7.2 mg/kg
- MTD ([2]; ip, single agent, ip q4dx3, first cisplatin study, read-out: MTD): 4.3 mg/kg
- MTD ([2]; ip, single agent, ip q4dx3, repeat cisplatin study, read-out: MTD): 7.2 mg/kg
- MTD [2, 11]: 6 mg/kg
- % ILS [1, 12]: 78%
- Net Cell Kill [1, 12]: [0] log
- % ILS [1, 13]: 122%
- Net Cell Kill [1, 13]: [1.1] log
- % ILS ([1]; Compound A 7.2 mg/kg (MTD) alone, ip Days 2, 6, 10, 5FU study): 178%
- toxicity at dose level ([1]; Compound A 12 mg/kg alone, ip Days 2, 6, 10, 5FU study): Toxic
- toxicity at dose level ([1]; Compound A 20 mg/kg alone, ip Days 2, 6, 10, 5FU study): Toxic
- % ILS (increase in life span) [1, 14]: 144%
- log cell kill (net cell kill) [1, 14]: 1.8 log
- % ILS (increase in life span) [1, 15]: 156%
- log cell kill (net cell kill) [1, 15]: 1.3 log
- % ILS (increase in life span) [1, 16]: 167%
- log cell kill (net cell kill) [1, 16]: 3.0 log
- % ILS (increase in life span) [1, 17]: 144%
- log cell kill (net cell kill) [1, 17]: 2.2 log
- % ILS (increase in life span) [1, 18]: 211%
- log cell kill (net cell kill) [1, 18]: 6.2 log
- MTD of Compound A in combination versus alone ([1]; combined with 0.86 or 1.44 mg/kg cisplatin, first cisplatin study): higher MTD
- MTD [3]: 18 mg/m^2
- activity against MX-1 (MX-1 breast carcinoma; Compound A alone at MTD of 10 mg/kg, q4dx3): refractory
- MTD (in vivo): 10 mg/kg

SMILES: COc1cccc2c1C(=O)c1c(O)c3c(c(O)c1C2=O)C[C@@](O)(C(=O)CO)C[C@@H]3O[C@H]1C[C@H](N)[C@H](O)[C@H](C)O1 [Doxorubicin, doxorubicin, reference compound]
- % ILS (increase in life span) [1, 19]: 89%
- log cell kill (net cell kill) [1, 19]: no log cell kill

SMILES: Nc1ccn([C@@H]2O[C@H](CO)[C@@H](O)C2(F)F)c(=O)n1 [Gemcitabine, gemcitabine, reference compound]
- MTD [2, 10]: ≥ 200 mg/kg
- % ILS (increase in life span) [1, 20]: 289%
- log cell kill (net cell kill) [1, 20]: > 7.3 log
- efficacy at lower doses ([1]; gemcitabine alone at 120 mg/kg or less): less effective

SMILES: CCc1c2c(nc3ccc(OC(=O)N4CCC(N5CCCCC5)CC4)cc13)-c1cc3c(c(=O)n1C2)COC(=O)[C@]3(O)CC [Irinotecan, irinotecan, reference compound]
- MTD [2, 11]: 150 mg/kg
- % ILS (increase in life span) [1, 21]: 211%
- log cell kill (net cell kill) [1, 21]: 4.8 log
- % ILS (increase in life span) [1, 22]: > 450%
- log cell kill (net cell kill) [1, 22]: > 6.9 log
